US11186576B2, “Pyrazolo[1,5-A][1,3,5]triazine and pyrazolo[1,5-A]pyrimidine derivatives as CDK inhibitors” (Aurigene Discovery Technologies Limited, priority 2015, dated 2021)
Where two headings read alike, the source gives them in different places.

Target: CDK7/CycH/MNAT1 (Homo sapiens (Human), UniProt P50613)
Test: Biochemical assay for CDK7 (TR-FRET kinase assay)
Details: for inhibition at 10 µM: read-out: % inhibition @ 10 μM
Summary of the method: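 CDK7/CycH/MNAT1 (5 nM) was preincubated with compound for 60 min at room temperature, then reacted for 60 min with 100 nM ULight-MBP and 1 mM ATP in 1% DMSO. Irreversibility was probed with 20, 60 and 180 min preincubations.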

[1] = 10 μM compound, 60 min pre-incubation, 1 mM ATP
[2] = 60 min pre-incubation, 1 mM ATP, read-out: IC50
[3] = IC50, 60 min pre-incubation, 1 mM ATP

Sequence of CDK7/CycH/MNAT1 (P50613 whole entry): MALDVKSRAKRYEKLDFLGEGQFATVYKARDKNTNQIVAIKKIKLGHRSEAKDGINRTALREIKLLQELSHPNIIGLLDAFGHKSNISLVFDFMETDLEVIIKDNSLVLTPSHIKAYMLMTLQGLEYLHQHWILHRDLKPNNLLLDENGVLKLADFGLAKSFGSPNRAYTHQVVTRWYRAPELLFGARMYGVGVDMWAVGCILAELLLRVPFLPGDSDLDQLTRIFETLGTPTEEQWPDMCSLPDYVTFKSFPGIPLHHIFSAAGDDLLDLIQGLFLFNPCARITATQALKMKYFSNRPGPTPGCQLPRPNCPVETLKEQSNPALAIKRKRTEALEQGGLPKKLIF
Sequence of CDK7/CycH/MNAT1 (P51946 whole entry partner): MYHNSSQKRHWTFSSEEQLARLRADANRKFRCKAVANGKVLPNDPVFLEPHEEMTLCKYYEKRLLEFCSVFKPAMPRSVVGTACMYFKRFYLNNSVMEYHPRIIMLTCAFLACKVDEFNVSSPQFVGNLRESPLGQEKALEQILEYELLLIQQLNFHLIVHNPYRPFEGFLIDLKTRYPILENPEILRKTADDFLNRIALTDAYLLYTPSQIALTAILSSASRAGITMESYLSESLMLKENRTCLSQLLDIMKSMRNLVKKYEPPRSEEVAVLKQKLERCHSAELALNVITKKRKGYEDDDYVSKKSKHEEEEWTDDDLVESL
Sequence of CDK7/CycH/MNAT1 (P51948 whole entry partner): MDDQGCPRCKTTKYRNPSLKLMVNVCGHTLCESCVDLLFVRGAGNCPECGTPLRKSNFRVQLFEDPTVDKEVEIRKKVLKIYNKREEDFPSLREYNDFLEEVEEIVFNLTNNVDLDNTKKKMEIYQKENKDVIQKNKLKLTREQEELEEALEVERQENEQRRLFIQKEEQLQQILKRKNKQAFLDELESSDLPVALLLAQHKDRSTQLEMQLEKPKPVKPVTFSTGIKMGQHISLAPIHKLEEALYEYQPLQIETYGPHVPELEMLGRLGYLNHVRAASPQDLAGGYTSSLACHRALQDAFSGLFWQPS

Structure (SMILES)	inhibition at 10 µM [1]	IC50 [2]	IC50 [3]	inhibition at 10 µM
C=CC(=O)NCC(=O)Nc1cccc(CNc2nc(NC3CCOCC3)nc3c(C(C)C)cnn23)c1 [Compound 79, N-(2-((3-(((8-isopropyl-2-((tetrahydro-2H-pyran-4-yl)amino)pyrazolo[1,5-a][1,3,5]triazin-4-yl)amino)methyl)phenyl)amino)-2-oxoethyl)acrylamide]	96%	< 300 nM		
CC(C)c1cnn2c(NCc3ccccc3N3CCN(C(=O)/C=C/CN(C)C)CC3)nc(NC3CCOCC3)nc12 [Compound 137, (E)-4-(dimethylamino)-1-(4-(2-(((8-isopropyl-2-((tetrahydro-2H-pyran-4-yl)amino)pyrazolo[1,5-a][1,3,5]triazin-4-yl)amino)methyl)phenyl)piperazin-1-yl)but-2-en-1-one]	99%	< 300 nM		
C=CC(=O)N1CCCC(C(=O)Nc2cccc(C(C)Nc3nc(NC4CCOCC4)nc4c(C(C)C)cnn34)c2)C1 (centres unmarked) [Compound 45, 1-acryloyl-N-(3-(1-((8-isopropyl-2-((tetrahydro-2H-pyran-4-yl)amino)pyrazolo[1,5-a][1,3,5]triazin-4-yl)amino)ethyl)phenyl)piperidine-3-carboxamide]	73%	> 1000 nM		
CC(C)c1cnn2c(NCc3cccc(NC(=O)/C=C/CN(C)C)c3F)nc(NC3CCOCC3)nc12 [Compound 60, (E)-4-(dimethylamino)-N-(2-fluoro-3-(((8-isopropyl-2-((tetrahydro-2H-pyran-4-yl)amino)pyrazolo[1,5-a][1,3,5]triazin-4-yl)amino)methyl)phenyl)but-2-enamide]	98%	< 300 nM		
C=CC(=O)N1CCC[C@H](NC(=O)c2cccc(CNc3nc(NC4CCOCC4)nc4c(C(C)C)cnn34)c2)C1 [Compound 41, (S)—N-(1-acryloylpiperidin-3-yl)-3-(((8-isopropyl-2-((tetrahydro-2H-pyran-4-yl)amino)pyrazolo[1,5-a][1,3,5]triazin-4-yl)amino)methyl)benzamide]	92%	300 to 1000 nM		
C=CC(=O)NC1CCCC(C(=O)Nc2cccc(CNc3nc(NC4CCOCC4)nc4c(C(C)C)cnn34)c2)C1 (centres unmarked) [Compound 22, 3-acrylamido-N-(3-(((8-isopropyl-2-((tetrahydro-2H-pyran-4-yl)amino)pyrazolo[1,5-a][1,3,5]triazin-4-yl)amino)methyl)phenyl)cyclohexane-1-carboxamide]	98%	< 300 nM		
C=CC(=O)N1CCC(C(=O)Nc2cccc(CNc3nc(OCC(C)C)nc4c(C(C)C)cnn34)c2)C1 (centres unmarked) [Compound 102, 1-acryloyl-N-(3-(((2-isobutoxy-8-isopropylpyrazolo[1,5-a][1,3,5]triazin-4-yl)amino)methyl)phenyl)pyrrolidine-3-carboxamide]	82%	300 to 1000 nM		
C=CC(=O)N1CC[C@@H]1C(=O)Nc1cccc(CNc2nc(NC3CCOCC3)nc3c(C(C)C)cnn23)c1 [Compound 19, (R)-1-acryloyl-N-(3-(((8-isopropyl-2-((tetrahydro-2H-pyran-4-yl)amino)pyrazolo[1,5-a][1,3,5]triazin-4-yl)amino)methyl)phenyl)azetidine-2-carboxamide]	100%	< 300 nM		
C=CC(=O)Nc1ccc(C)c(C(=O)Nc2cccc(CNc3nc(NC4CCOCC4)nc4c(C(C)C)cnn34)c2)c1 [Compound 40B, 5-acrylamido-N-(3-(((8-isopropyl-2-((tetrahydro-2H-pyran-4-yl)amino)pyrazolo[1,5-a][1,3,5]triazin-4-yl)amino)methyl)phenyl)-2-methylbenzamide]		< 300 nM		
C=CC(=O)N[C@H]1CC[C@@H](C(=O)Nc2ccc(F)c(CNc3nc(NC4CCOCC4)nc4c(C(C)C)cnn34)c2)CC1 [Compound 39, (1,4-cis)-4-acrylamido-N-(4-fluoro-3-(((8-isopropyl-2-((tetrahydro-2H-pyran-4-yl)amino)pyrazolo[1,5-a][1,3,5]triazin-4-yl)amino)methyl)phenyl)cyclohexane-1-carboxamide]	76%	> 1000 nM		
CC(C)c1cnn2c(NCc3cccc(NC(=O)C4CCCCN4C(=O)/C=C/CN(C)C)c3)nc(NC3CCOCC3)nc12 (centres unmarked) [Compound 74, (E)-1-(4-(dimethylamino)but-2-enoyl)-N-(3-(((8-isopropyl-2-((tetrahydro-2H-pyran-4-yl)amino)pyrazolo[1,5-a][1,3,5]triazin-4-yl)amino)methyl)phenyl)piperidine-2-carboxamide]	99%	< 300 nM		
C=CC(=O)N1CCN(C(=O)Oc2cccc(CNc3nc(OC4CCN(C)CC4)nc4c(C(C)C)cnn34)c2)CC1 [Compound 121, 3-(((8-isopropyl-2-((1-methylpiperidin-4-yl)oxy)pyrazolo[1,5-a][1,3,5]triazin-4-yl)amino)methyl)phenyl 4-acryloylpiperazine-1-carboxylate]			< 300 nM	93%
C=CC(=O)N(C)CC(=O)Nc1cccc(CNc2nc(NC3CCOCC3)nc3c(C(C)C)cnn23)c1 [Compound 81, N-(2-((3-(((8-isopropyl-2-((tetrahydro-2H-pyran-4-yl)amino)pyrazolo[1,5-a][1,3,5]triazin-4-yl)amino)methyl)phenyl)amino)-2-oxoethyl)-N-methylacrylamide]	98%	< 300 nM		
CC(C)c1cnn2c(NCc3ccc(F)c(NC(=O)C4CCN(C(=O)/C=C/CN(C)C)C4)c3)nc(NC3CCOCC3)nc12 (centres unmarked) [Compound 64, (E)-1-(4-(dimethylamino)but-2-enoyl)-N-(2-fluoro-5-(((8-isopropyl-2-((tetrahydro-2H-pyran-4-yl)amino)pyrazolo[1,5-a][1,3,5]triazin-4-yl)amino)methyl)phenyl) pyrrolidine-3-carboxamide]	91%	300 to 1000 nM		
C=CC(=O)N1CCCCC1C(=O)Nc1ccc(C)c(CNc2nc(NC3CCOCC3)nc3c(C(C)C)cnn23)c1 (centres unmarked) [Compound 34, 1-acryloyl-N-(3-(((8-isopropyl-2-((tetrahydro-2H-pyran-4-yl)amino)pyrazolo[1,5-a][1,3,5]triazin-4-yl)amino)methyl)-4-methylphenyl)piperidine-2-carboxamide]	73%	> 1000 nM		
C=CC(=O)N[C@H]1CC[C@@H](C(=O)Nc2cccc(CNc3nc(OC4CCOC4)nc4c(C(C)C)cnn34)c2)CC1 (stereo partly drawn) [Compound 100, (1,4-cis)-4-acrylamido-N-(3-(((8-isopropyl-2-((tetrahydrofuran-3-yl)oxy)pyrazolo[1,5-a][1,3,5]triazin-4-yl)amino)methyl)phenyl)cyclohexane-1-carboxamide]	82%	300 to 1000 nM		
CC(C)c1cnn2c(NCc3cc(F)cc(NC(=O)/C=C/CN(C)C)c3)nc(NC3CCOCC3)nc12 [Compound 59, (E)-4-(dimethylamino)-N-(3-fluoro-5-(((8-isopropyl-2-((tetrahydro-2H-pyran-4-yl)amino)pyrazolo[1,5-a][1,3,5]triazin-4-yl)amino)methyl)phenyl)but-2-enamide]	98%	< 300 nM		
C=CC(=O)N1CCC(C(=O)Nc2cc(CNc3nc(NC4CCOCC4)nc4c(C(C)C)cnn34)ccc2F)C1 (centres unmarked) [Compound 43, 1-acryloyl-N-(2-fluoro-5-(((8-isopropyl-2-((tetrahydro-2H-pyran-4-yl)amino)pyrazolo[1,5-a][1,3,5]triazin-4-yl)amino)methyl)phenyl)pyrrolidine-3-carboxamide]	79%	300 to 1000 nM		
C=CC(=O)N1CCOC(C(=O)Nc2cccc(CNc3nc(OC4CCN(C)CC4)nc4c(C(C)C)cnn34)c2)C1 (centres unmarked) [Compound 112, 4-acryloyl-N-(3-(((8-isopropyl-2-((1-methylpiperidin-4-yl)oxy)pyrazolo[1,5-a][1,3,5]triazin-4-yl)amino)methyl)phenyl)morpholine-2-carboxamide]	99%	< 300 nM		
CC(C)c1cnn2c(NCc3cc(F)cc(NC(=O)/C=C/CN4CCOCC4)c3)nc(NC3CCOCC3)nc12 [Compound 61, (E)-N-(3-fluoro-5-(((8-isopropyl-2-((tetrahydro-2H-pyran-4-yl)amino)pyrazolo[1,5-a][1,3,5]triazin-4-yl)amino)methyl)phenyl)-4-morpholinobut-2-enamide]	76%	> 1000 nM		
CC(C)c1cnn2c(NCc3cccc(OC(=O)N4CCN(C(=O)/C=C/CN(C)C)CC4)c3)nc(NC3CCOCC3)nc12 [Compound 75, 3-(((8-isopropyl-2-((tetrahydro-2H-pyran-4-yl)amino)pyrazolo[1,5-a][1,3,5]triazin-4-yl)amino)methyl)phenyl(E)-4-(4-(dimethylamino)but-2-enoyl)piperazine-1-carboxylate]			< 300 nM	97%
C=CC(=O)N1CCC(C(=O)Nc2cccc(CNc3nc(OCCOC)nc4c(C(C)C)cnn34)c2)C1 (centres unmarked) [Compound 103, 1-acryloyl-N-(3-(((8-isopropyl-2-(2-methoxyethoxy)pyrazolo[1,5-a][1,3,5]triazin-4-yl)amino)methyl)phenyl)pyrrolidine-3-carboxamide]	80%	> 1000 nM		
CC(C)c1cnn2c(NCc3ccccc3NC(=O)/C=C/CN(C)C)nc(NC3CCOCC3)nc12 [Compound 62, (E)-4-(dimethylamino)-N-(2-(((8-isopropyl-2-((tetrahydro-2H-pyran-4-yl)amino)pyrazolo[1,5-a][1,3,5]triazin-4-yl)amino)methyl)phenyl)but-2-enamide]	97%	< 300 nM		
C=CC(=O)N[C@H]1CC[C@@H](C(=O)Nc2cccc(CNc3nc(OC4CCOCC4F)nc4c(C(C)C)cnn34)c2)CC1 (single isomer, unassigned) [Compound 98, 4-acrylamido-N-(3-(((2-((3-fluorotetrahydro-2H-pyran-4-yl)oxy)-8-isopropylpyrazolo[1,5-a][1,3,5]triazin-4-yl)amino)methyl)phenyl)cyclohexane-1-carboxamide]	88%	300 to 1000 nM		
